In patent publication US11786584B2, “Peptides and combination of peptides for use in immunotherapy against prostate cancer and other cancers” (Immatics Biotechnologies GmbH, priority 2015, dated 2023):

Experiments:
[1] = target: HLA-A*02 (Homo sapiens, UniProt P04439, D140Y/D185E/D98H/E176V/E277Q/G131W/G231S/I119V/I121R/I166T/I218V/L300P/N151K/N90K/P208A/P217A/Q86G/Q94H/R138H/R169H); assay: MHC binding assay by UV-ligand exchange and beta2m ELISA; details: peptide exchange yield
Excerpt: (§1) Candidate peptides for T cell based therapies according to the present invention were further tested for their MHC binding capacity (affinity). The individual peptide-MHC complexes were produced by UV-ligand exchange, where a UV-sensitive peptide is cleaved upon UV-irradiation, and exchanged with the peptide of interest as analyzed. Only peptide candidates that can effectively bind and stabilize the peptide-receptive MHC molecules prevent dissociation of the MHC complexes. To determine the yield of the exchange reaction, an ELISA was performed based on the detection of the light chain (β2m) of stabilized MHC complexes. The assay was performed as generally described in Rodenko et al. (Rodenko et al., 2006).
(§2) 96 well MAXISorp plates (NUNC) were coated over night with 2 ug/ml streptavidin in PBS at room temperature, washed 4× and blocked for 1 h at 37° C. in 2% BSA containing blocking buffer. Refolded HLA-A*02:01/MLA-001 monomers served as standards, covering the range of 15-500 ng/ml. Peptide-MHC monomers of the UV-exchange reaction were diluted 100 fold in blocking buffer. Samples were incubated for 1 h at 37° C., washed four times, incubated with 2 ug/ml HRP conjugated anti-β2m for 1 h at 37° C., washed again and detected with TMB solution that is stopped with […]. Absorption was measured at 450 nm. Candidate peptides that show a high exchange yield (preferably higher than 50%, most preferred higher than 75%) are generally preferred for a generation and production of antibodies or fragments thereof, and/or T cell receptors or fragments thereof, as they show sufficient avidity to the MHC molecules and prevent dissociation of the MHC complexes.

[2] = tested on: CD8+ T cells; assay: In vitro T-cell priming assay with aAPCs loaded with peptide/MHC and anti-CD28, multimer readout; type: cell-based, human; details: in vitro immunogenicity; for Wells positive [%]: Table 15B; for donors / wells: Table 15A; for donors: positive donors; for wells: positive wells
Excerpt: In order to obtain information regarding the immunogenicity of the TUMAPs of the present invention, the inventors performed investigations using an in vitro T-cell priming assay based on repeated stimulations of CD8+ T cells with artificial antigen presenting cells (aAPCs) loaded with peptide/MHC complexes and anti-CD28 antibody.
In order to perform in vitro stimulations by artificial antigen presenting cells loaded with peptide-MHC complex (pMHC) and anti-CD28 antibody, the inventors first isolated CD8+ T cells from fresh HLA-A*02 leukapheresis products via positive selection using CD8 microbeads (Miltenyi Biotec, Bergisch-Gladbach, Germany) of healthy donors obtained from the University clinics Mannheim, Germany, after informed consent.
PBMCs and isolated CD8+ lymphocytes were incubated in T-cell medium (TCM) until use consisting of RPMI-Glutamax (Invitrogen, Karlsruhe, Germany) supplemented with 10% heat inactivated human AB serum (PAN-Biotech, Aidenbach, Germany), 100 U/ml Penicillin/100 μg/ml Streptomycin (Cambrex, Cologne, Germany), 1 mM sodium pyruvate (CC Pro, Oberdorla, Germany), 20 μg/ml Gentamycin (Cambrex). 2.5 ng/ml IL7 (PromoCell, Heidelberg, Germany) and 10 U/ml IL-2 (Novartis Pharma, Nurnberg, Germany) were also added to the TCM at this step.
Generation of pMHC/anti-CD28 coated beads, T-cell stimulations and readout was performed in a highly defined in vitro system using four different pMHC molecules per stimulation condition and 8 different pMHC molecules per readout condition.
The purified co-stimulatory mouse IgG2a anti human CD28 Ab 9.3 (Jung et al., 1987) was chemically biotinylated using Sulfo-N-hydroxysuccinimidobiotin as recommended by the manufacturer (Perbio, Bonn, Germany). Beads used were 5.6 μm diameter streptavidin coated polystyrene particles (Bangs Laboratories, Illinois, USA).
800.000 beads/200 μl were coated in 96-well plates in the presence of 4×12.5 ng different biotin-pMHC, washed and 600 ng biotin anti-CD28 were added subsequently in a volume of 200 μl. Stimulations were initiated in 96-well plates by co-incubating […] CD8+ T cells with 2×10^5 washed coated beads in 200 μl TCM supplemented with 5 ng/ml IL-12 (PromoCell) for 3 days at 37° C. Half of the medium was then exchanged by fresh TCM supplemented with 80 U/ml IL-2 and incubating was continued for 4 days at 37° C. This stimulation cycle was performed for a total of three times. For the pMHC multimer readout using 8 different pMHC molecules per condition, a two-dimensional combinatorial coding approach was used as previously described (Andersen et al., 2012) with minor modifications encompassing coupling to 5 different fluorochromes. Finally, multimeric analyses were performed by staining the cells with Live/dead near IR dye (Invitrogen, Karlsruhe, Germany), CD8-FITC antibody clone SK1 (BD, Heidelberg, Germany) and fluorescent pMHC multimers. For analysis, a BD LSRII SORP cytometer equipped with appropriate lasers and filters was used. Peptide specific cells were calculated as percentage of total CD8+ cells. Evaluation of multimeric analysis was done using the FlowJo software (Tree Star, Oregon, USA). In vitro priming of specific multimer+ CD8+ lymphocytes was detected by comparing to negative control stimulations.

[3] = tested on: HLA-A*24; assay: MHC binding assay by UV-ligand exchange and beta2m ELISA; set-up: species or system human; details: peptide exchange yield
Excerpt: as §1, §2

Substance | Peptide exchange [1] | Peptide exchange [3] | also measured
1 (VTAQIGIVAV; listed as Homo sapiens) [compound 1] | ++++ (>75% = ++++) | – | Wells positive [%] [2]: ++++ (>=70% = ++++)
2 (SMLGEEIQL; listed as Homo sapiens) [compound 2] | ++++ (>75% = ++++) | – | –
3 (HLLEDIAHV; listed as Homo sapiens) [compound 3] | ++++ (>75% = ++++) | – | Wells positive [%] [2]: ++ (20%-49% = ++)
4 (ALLTFVWKL; listed as Homo sapiens) [compound 4] | ++++ (>75% = ++++) | – | –
5 (KIFSRLIYI; listed as Homo sapiens) [compound 5] | +++ (>50 = +++) | – | Wells positive [%] [2]: +++ (50%-69%= +++)
6 (ALLESRVNL; listed as Homo sapiens) [compound 6] | ++++ (>75% = ++++) | – | Wells positive [%] [2]: + (<20% = +)
7 (TLLQVVGVVSV; listed as Homo sapiens) [compound 7] | ++ (>20% = ++) | – | –
9 (GMLNEAEGKAIKL; listed as Homo sapiens) [compound 9] | +++ (>50 = +++) | – | –
10 (TLWRGPVVV; listed as Homo sapiens) [compound 10] | +++ (>50 = +++) | – | –
11 (YLEEECPAT; listed as Homo sapiens) [compound 11] | ++ (>20% = ++) | – | –
13 (AMAPNHAVV; listed as Homo sapiens) [compound 13] | +++ (>50 = +++) | – | –
14 (KMDEASAQLL; listed as Homo sapiens) [compound 14] | ++ (>20% = ++) | – | –
15 (KMDEASAQLLA; listed as Homo sapiens) [compound 15] | +++ (>50 = +++) | – | –
16 (KMDEASAQL; listed as Homo sapiens) [compound 16] | +++ (>50 = +++) | – | –
17 (RLGIKPESV; listed as Homo sapiens) [compound 17] | – | – | donors [2]: ++++ (>=70% = ++++); wells [2]: ++ (20%-49% = ++)
20 (SLLSHQVLL; listed as Homo sapiens) [compound 20] | +++ (>50 = +++) | – | –
21 (YLNDSLRHV; listed as Homo sapiens) [compound 21] | ++ (>20% = ++) | – | –
22 (SLYDSIAFI; listed as Homo sapiens) [compound 22] | ++++ (>75% = ++++) | – | –
24 (SYNDALLTF; listed as Homo sapiens) [compound 24] | – | +++ (>50 = +++) | Wells positive [%] [2]: +++ (50%-69%= +++)
25 (IYEPYLAMF; listed as Homo sapiens) [compound 25] | – | +++ (>50 = +++) | –
26 (RYADDTFTPAF; listed as Homo sapiens) [compound 26] | – | +++ (>50 = +++) | –
27 (GYLQGLVSF; listed as Homo sapiens) [compound 27] | – | ++++ (>75% = ++++) | Wells positive [%] [2]: ++ (20%-49% = ++)
28 (YYAKEIHKF; listed as Homo sapiens) [compound 28] | – | ++++ (>75% = ++++) | –

Substance | Peptide exchange [1] | Peptide exchange [3] | also measured
29 (RYGSPINTF; listed as Homo sapiens) [compound 29] | – | +++ (>50 = +++) | donors [2]: +++ (50%-69% = +++); wells [2]: + (<20% = +)
30 (SYSPAHARL; listed as Homo sapiens) [compound 30] | – | +++ (>50 = +++) | –
31 (AYTSPPSFF; listed as Homo sapiens) [compound 31] | – | +++ (>50 = +++) | –
32 (PYQLNASLFTF; listed as Homo sapiens) [compound 32] | – | ++++ (>75% = ++++) | –
33 (QYGKDFLTL; listed as Homo sapiens) [compound 33] | – | +++ (>50 = +++) | –
34 (AFSPDSHYLLF; listed as Homo sapiens) [compound 34] | – | +++ (>50 = +++) | donors [2]: +++ (50%-69% = +++); wells [2]: + (<20% = +)
35 (IYTRVTYYL; listed as Homo sapiens) [compound 35] | – | ++ (>20% = ++) | donors [2]: ++++ (>=70% = ++++); wells [2]: ++ (20%-49% = ++)
36 (RYMWINQEL; listed as Homo sapiens) [compound 36] | – | +++ (>50 = +++) | –
41 (RYLQKIEEF; listed as Homo sapiens) [compound 41] | – | +++ (>50 = +++) | –
42 (TYIGQGYII; listed as Homo sapiens) [compound 42] | – | +++ (>50 = +++) | donors [2]: ++++ (>=70% = ++++); wells [2]: + (<20% = +)
43 (AYIKNGQLF; listed as Homo sapiens) [compound 43] | – | +++ (>50 = +++) | –
44 (VYNTVSEGTHF; listed as Homo sapiens) [compound 44] | – | +++ (>50 = +++) | –
45 (RYFKTPRKF; listed as Homo sapiens) [compound 45] | – | ++ (>20% = ++) | –
47 (SYTPVLNQF; listed as Homo sapiens) [compound 47] | – | ++++ (>75% = ++++) | –
48 (AWAPKPYHKF; listed as Homo sapiens) [compound 48] | – | +++ (>50 = +++) | –
52 (ALGDLVQSV; listed as Homo sapiens) [compound 52] | +++ (>50 = +++) | – | –
53 (YLLKDKGEYTL; listed as Homo sapiens) [compound 53] | +++ (>50 = +++) | – | –
54 (AYSEKVTEF; listed as Homo sapiens) [compound 54] | – | +++ (>50 = +++) | –
55 (LYFEKGEYF; listed as Homo sapiens) [compound 55] | – | ++++ (>75% = ++++) | –
56 (LFHPEDTGQVF; listed as Homo sapiens) [compound 56] | – | ++ (>20% = ++) | –
58 (GYIDKVRQL; listed as Homo sapiens) [compound 58] | – | ++ (>20% = ++) | –
59 (IYPDVTYAF; listed as Homo sapiens) [compound 59] | – | +++ (>50 = +++) | –
